Measured values: US11286234B2, “Phenyl urea derivatives as N-formyl peptide receptor modulators” (Allergan, Inc., priority 2016, dated 2022)

How the values were obtained:
[1] = target: T1, FPR2 (Homo sapiens, UniProt P25090); assay: Compound-induced calcium activity (FLIPR Tetra) in CHO-Gα16 cells stably expressing FPR2; assay type: cell-based; settings: for EC50: calcium activity, tested 0.61 to 10,000 nM, read-out: FPR2 Ga16-CHO EC50; for Emax: efficacy value in brackets, read-out: FPR2 Ga16-CHO (% eff)
T1 construct: expressed in transfected cells
T1 sequence (P25090 1-351): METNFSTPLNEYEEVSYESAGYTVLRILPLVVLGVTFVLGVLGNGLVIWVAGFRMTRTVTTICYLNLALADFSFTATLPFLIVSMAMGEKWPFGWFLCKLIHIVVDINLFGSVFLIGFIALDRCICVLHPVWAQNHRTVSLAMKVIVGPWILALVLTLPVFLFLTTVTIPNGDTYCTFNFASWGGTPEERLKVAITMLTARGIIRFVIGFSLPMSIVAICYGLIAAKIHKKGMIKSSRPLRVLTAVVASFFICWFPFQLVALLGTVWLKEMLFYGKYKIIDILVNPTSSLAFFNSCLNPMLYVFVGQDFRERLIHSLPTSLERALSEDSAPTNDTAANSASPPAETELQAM
Description: (§1) CHO-Gα16 cells stably expressing FPR1 or FPR2 were cultured in: Ham's F12 nutrient media, 10% fetal bovine serum, 1% PSA (penicillin, streptomycin, amphotericin B antiobiotic/antimycotic), 400 μg/ml geneticin and 50 μg/ml hygromycin. In general, the day before the experiment, 18,000 cells/well were plated in a 384-well clear bottom poly-D-lysine coated plate. The following day the screening compound-induced calcium activity was assayed on the FLIPR^Tetra. The drug plates were prepared in 384-well microplates using the EP3 and the MultiPROBE robotic liquid handling systems. Compounds were tested at concentrations ranging from 0.61 to 10,000 nM. Results are expressed as EC50 (nM) and efficacy values.

[2] = target: T2, FPR1 (Homo sapiens, UniProt P21462); assay: Compound-induced calcium activity (FLIPR Tetra) in CHO-Gα16 cells stably expressing FPR1; assay type: cell-based; settings: for EC50 / Emax: CHO-Gα16 cells stably expressing FPR1; for EC50: calcium activity, tested 0.61 to 10,000 nM, read-out: FPR1 Ga16-CHO EC50; for Emax: efficacy value in brackets, read-out: FPR1 Ga16-CHO (% eff); for Ratio FPR2:FPR1 (EC50): ratio of the EC50 for agonizing FPR2 to the EC50 for agonizing FPR1
T2 construct: expressed in transfected cells
T2 sequence (P21462 1-350): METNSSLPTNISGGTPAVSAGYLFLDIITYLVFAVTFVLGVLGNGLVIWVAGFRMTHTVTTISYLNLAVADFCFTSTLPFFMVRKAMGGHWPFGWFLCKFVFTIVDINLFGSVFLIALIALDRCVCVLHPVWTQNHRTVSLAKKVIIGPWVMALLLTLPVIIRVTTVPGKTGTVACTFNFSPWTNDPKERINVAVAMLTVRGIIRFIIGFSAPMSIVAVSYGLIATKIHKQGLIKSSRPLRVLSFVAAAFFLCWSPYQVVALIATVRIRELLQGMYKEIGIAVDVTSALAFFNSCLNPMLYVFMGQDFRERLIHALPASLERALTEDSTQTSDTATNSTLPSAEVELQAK
Description: as §1

Structure (SMILES)	EC50 [1]	Emax [1]	EC50 [2]	Emax [2]	Ratio FPR2:FPR1 (EC50) [2]
CC(C)CC(CNC(=O)Nc1ccc(Br)cc1)C(=O)NCC(=O)O (centres unmarked) [Compound 36, ({2-[({[(4-bromophenyl)amino]carbonyl}amino)methyl]-4-methylpentanoyl}amino)acetic acid]	1000 nM	43%	156 nM	95%	6.4
CC(C)CC(CNC(=O)Nc1ccc(Br)cc1)C(=O)N(C)CC(=O)O (centres unmarked) [Compound 37, 2-(2-((3-(4-bromophenyl)ureido)methyl)-N,4-dimethylpentanamido)acetic acid]	12 nM	104%	55 nM	96%	0.22
COC(=O)C(CNC(=O)CNC(=O)Nc1ccc(Br)cc1)CC(C)C (centres unmarked) [Compound 38]	2170 nM	80%	2600 nM	77%	0.83
CC(C)CC(CNC(=O)CNC(=O)Nc1ccc(Br)cc1)C(=O)O (centres unmarked) [Compound 39, 2-((2-(3-(4-Bromophenyl)ureido)acetamido)methyl)-4-methylpentanoic acid]	1680 nM	77%	19 nM	96%	88
